Columns and labels:
TMEM175 [1] = target: T1, TMEM175 (Homo sapiens, UniProt Q9BSA9); assay: SSME cation selectivity assay with 4-AP block (SURFE2R 96SE); type: biochemical; details: 10 mM 4-AP
T1 sequence (Q9BSA9 1-504): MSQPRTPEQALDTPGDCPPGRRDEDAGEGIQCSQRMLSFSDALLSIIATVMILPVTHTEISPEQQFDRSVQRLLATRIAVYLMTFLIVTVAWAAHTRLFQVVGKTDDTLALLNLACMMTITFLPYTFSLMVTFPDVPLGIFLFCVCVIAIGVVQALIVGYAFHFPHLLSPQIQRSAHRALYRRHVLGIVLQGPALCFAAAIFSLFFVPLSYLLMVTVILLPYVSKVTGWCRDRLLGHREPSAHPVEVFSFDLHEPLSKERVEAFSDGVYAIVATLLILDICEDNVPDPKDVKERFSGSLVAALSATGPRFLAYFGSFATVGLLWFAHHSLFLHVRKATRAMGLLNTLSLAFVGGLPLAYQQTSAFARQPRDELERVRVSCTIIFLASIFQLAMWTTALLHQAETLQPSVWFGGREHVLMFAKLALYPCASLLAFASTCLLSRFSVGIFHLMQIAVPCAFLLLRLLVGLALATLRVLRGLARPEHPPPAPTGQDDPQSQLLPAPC
Source text: We performed the same experiment on lysosomes purified from HEK293 cells overexpressing TMEM175 (TMEM175 sample, Figure 2B) and control lysosomes that were purified from HEK293 cells expressing endogenous TMEM175 (control sample, Figure 2C), using a low sample dilution to enhance the signal-to-noise.
We also performed a similar series of experiments on the SURFE^2R 96SE, essentially reproducing the results found with the SURFE^2R N1 (Figure 2E). […] Supplementary Figure S2 contains representative current traces and additional experimental details.
We applied a solution exchange from 50 mM NMDG-Cl to 50 mM of a different Cl salt at pH 7.6; (B) Representative current traces recorded with the TMEM175 sample. All traces are recorded from the same sensor; (C) Representative current traces recorded with the control sample. Currents reflect background signals (artifacts) resulting from ion–membrane interactions; (D) Average peak currents and SD for N = 5 sensors recorded with the TMEM175 and control samples; (E) Average peak currents and SEM for N = 16 sensors, recorded with the TMEM175 (left) and control (right) sample. […]
Ion selectivity of TMEM175 recorded on the SURFE2R 96SE. Representative current traces recorded using different cation species on TMEM175 and control samples using the SURFE2R 96SE. […]

TMEM175 [2] = target: T1, TMEM175; assay: Manual lysosomal patch-clamp (LPC) on vacuolin-1 enlarged lysosomes; type: biochemical
Protocol: Since both technologies apply different assay conditions and samples, the origin of the discrepancies may not be concluded. To investigate potential systematic variations among different assay technologies, namely, whole-cell APC, SSME on purified lysosomes, and manual LPC, we conducted a comparative analysis of the potency and maximum potentiation of a set of eight blinded compounds and SC-79 (Figure 8, Table 4). SSME recordings were performed using the same procedures as described for the tool compounds above. However, adjustments were made to the voltage application protocol in APC, as outlined in the Methods section. Lysosomal patch-clamp was performed using a manual setup. In contrast to APC and SSME recordings, the recorded current in LPC represents H^+ efflux from lysosomes in the presence of a physiological pH gradient (details are provided in the Methods section).
Experiments were carried out in whole-lysosome configuration in voltage-clamp mode, using a modified patch-clamp method, as described by Chen et al..
Briefly, cells were treated overnight with 5 µM vacuolin-1 to increase the size of the lysosomes. Mechanical isolation was performed using a patch pipette pressed against a selected cell, and quickly pulled away to slice the cell membrane to release the enlarged lysosomes into the dish. After the dissection of the lysosomes, the glass electrode was exchanged for a recording electrode. After the formation of a giga-seal and compensation of capacitance transients, voltage steps of several hundred millivolts with millisecond duration were applied to break into the vacuolar membrane.
The bath solution representing the cytosol contained 10 mM HEPES (pH 7.2), 145 mM K-methanesulfonate and 5 mM KCl. The pipette solution representing the lysosomal lumen contained 10 mM MES (pH 5.5), 145 mM Cs-methanesulfonate, 5 mM KCl, and 10 mM EGTA.
After the reappearance of capacitance transients to verify the whole-lysosome configuration, the TMEM175 currents were recorded using a ramp protocol from −100 to +100 mV with 1 s of duration, digitized at 20 kHz. The ramp protocol was repeated in 4 s intervals, keeping the lysosomes at 0 mV in between. We used the outward current at +100 mV as a read-out, essentially observing the flux of H^+ and Cs^+ from the lysosome into the cytosol. […]
Before averaging across datasets obtained from N = 3 lysosomes, we normalized the currents to the control current. Datasets containing 6 or 9 compound concentrations were recorded in two or three sets of experiments with 3 compound concentrations per lysosome. All experiments were conducted at room temperature, and recordings were analyzed with pClamp 10.7 and GraphPad Prism 8.

control HEK293 UT cells = assay: Whole-cell APC off-target effects on control cells; type: cell-based, human; details: 50 µM
Protocol: Figure 7 Whole-cell APC recordings on TMEM175: (A) Schematic representation of assay conditions in the Cs^+ flux assay. The ions known to permeate through TMEM175 in the external and internal solutions are indicated; (B) Voltage protocol and time points for the read-out of inward and outward currents; (C) The compound application protocol consists of the recording of the TMEM175 baseline current. […] Success rates were determined based on the QC criteria provided in the Methods section. […] We determined average values, AVGpos and AVGneg, and standard deviations, SDpos and SDneg, of the recorded currents. […] Datapoints were normalized to the TMEM175 baseline current before compound addition and then averaged across at least N = 5 cells. Error bars represent the SEM obtained from automated data analysis using DataControl384. […] The compound effects on control cells were between +10% and -40% compared to the control baseline current. […]. […] Therefore, off-target compound effects seem to be negligible in the APC assay.

Nc1ccncc1 [4-AP, 4-aminopyridine]
Block of TMEM175 net currents for K+, Rb+ and Cs+ (TMEM175 [1]): complete blockade

CCOC(=O)C1=C(N)Oc2ccc(Cl)cc2C1C(C#N)C(=O)OCC (stereo not drawn) [SC-79]
Imax − Imin (nA), LPC (TMEM175 [2]; Table 4 fit, currents normalized to current before compound): 0.91 ± 0.52 nA | n (Hill coefficient), LPC (TMEM175 [2]; fixed to 1 in the fit): 1 | Potentiation, LPC (TMEM175 [2]; from dose-response fit, Figure 8): 91 ± 52% | EC50 (TMEM175 [2]; outward current at +100 mV, pipette pH 5.5 / bath pH 7.2): 21 ± 32 µM

[Cl-].[Cl-].[Zn+2] [Zn, ZnCl2]
Decrease of baseline current of control cells (control HEK293 UT cells): 30–40%

Source: PMC10454728, “A Comparative Study on the Lysosomal Cation Channel TMEM175 Using Automated Whole-Cell Patch-Clamp, Lysosomal Patch-Clamp, and Solid Supported Membrane-Based Electrophysiology: Functional Characterization and High-Throughput Screening Assay Development” (International Journal of Molecular Sciences, 2023)
